Measurements: patent US20260275280A1, “DIRECTED DIFFERENTIATION PROTOCOLS TO DERIVE BONE FIDE SPINAL SENSORY INTERNEURONS” (THE REGENTS OF THE UNIVERSITY OF CALIFORNIA, priority 2022, published 2026)

How the values were obtained:
hESCs/hiPSCs = test: Induction of NMPs from hPSCs in 2D culture (FGF2, CHIR99021); type: cell-based, human; conditions: N2/B27 with FGF2 and CHIR99021, up to day 6
Method: Add 2 mL N2/B27 media containing 10ng of FGF2 and SuM of CHIR99021 (Wnt signaling agonist) to each well of the 6-well plate and return the plate to the incubator. Feed cells every other day with N2/B27 media for up to 6 days. Cells should appear as a monolayer with cells packed together tightly at the end of day 6 (FIG. 16A). This confluency is optimal for embryoid body (EB) formation in the next step.

mESC-derived NPCs = test: Expansion culture: serial passaging of RA±BMP4 patterned EBs in CHIR or DMSO; type: cell-based, mouse
Method: For expansion cultures. EBs were dissociated in single cell suspension at day 6 by treating with 0.25% Trypsin, followed by trituration to break up the larger cell clumps. Cells were pelleted and passaged in N2/B27 medium containing either DMSO or 5 μM CHIR at 1:3 dilution. Media was changed at every third day during the expansion culture.
Finally, we assessed whether the mitogenic properties of Wnt signaling can be leveraged to expand the pool of mESC-derived NPCs. RA±BMP4 patterned EBs were serially passaged at 1:3 dilution […] in the presence of DMSO (control) or CHIR (FIG. 7A).
Embryonic stem cells are first directed to a day 4 neural precursor cell (NPC) state, and then Wnt signaling is continually switched on using CHIR, which starts the process of proliferation. The cells are then passaged every 6 days. with a 1:3 split. Control NPCs die almost immediately, while “expanded” cells keep dividing for as long as they have been passaged to date (three months). These NPCs can then be differentiated. Differentiation of the expanded cultures without any further signals yields dI3s and dI5s. A further pulse for two days with RA (day 3-5), produces dI4, dI5 and dI6. Pulsing them with RA+BMP4, yields dI1, dI2 and dW3.
Thus, a method of keeping dorsal progenitors (dPs) in a proliferative state for many passages (perhaps indefinitely) is provided. The proliferative state can be maintained without changing the fate potential of the dPs. mESCs are first patterned according to either the RA or RA+BMP4 protocol, up to day 6. After patterning, the dPs are then reintroduced to medium containing CHIR (Wnt agonist, that stimulates Wnt signaling). The CHIR-treated cultures can then serially expand 3-fold every 6 days (a passage), unlike control (DMSO-treated) cells, which start dying at passage 2 (FIG. 7). To date we have expanded dPs for 7-8 passages, i.e. a couple of months.

[1] = tested on: mESCs-derived NMPs / NPCs; test: Bulk RNA-Seq differential expression and qRT-PCR after RA or RA+BMP4 treatment; type: cell-based, mouse
Method: Bulk-RNA sequencing and data processing: Total cell lysate was obtained in buffer RLT (Qiagen) at different time points from three independent differentiations (biological replicates) conducted parallelly. RNA extraction was performed using RNeasy mini kit (Qiagen) and the quality was determined using Agilent Technologies 2100 Bioanalyzer and only samples with a RIN score >8.0 were sequenced. Stranded libraries were constructed using Universal plus mRNA sequencing kit (NuGEN) and sequenced onto 2 lanes of NovaseqS1 to generate 30 million reads/sample. Obtained reads were aligned to the latest mouse reference genome (mm10) using the STAR spliced read aligner. Pearson correlation and principal component analysis (PCA) was performed to determine the similarities among the samples and replicates. Differentially expressed genes were identified using DESeq and EdgeR package on R platform. The candidate genes were selected using cutoff false discovery rate (FDR <0.05) and log fold change (>2). Differentially expressed gene lists were further subjected to Enrichr, Metascape (Zhou et al., 2019) and DAVID functional annotation tools to identify enriched gene ontology (GO) categories.
Quantitative (a) RT-PCR analysis: RNA was isolated with RNeasy Mini Kit (Qiagen, cat no. 74104), and converted to cDNA using Superscript IV First Strand Synthesis kit (Thermo Fisher Scientific). qRT-PCR was performed using SYBR Green PCR Master Mix (Applied Biosystems) on Roche 480 Lightcycler (Roche). The relative fold expression was calculated using 2-AACt method of comparing the expression of the target gene with that of the housekeeping gene glyceraldehyde 3-phosphate dehydrogenase (Gapdh). All experiments were repeated at least 2-3 times (technical replicates) from at least two independent differentiations (biological replicates), and data is represented as mean±SEM.
We took advantage of the directed differentiation protocols to investigate the unresolved mechanisms by which RA and BMP direct dI fate specification. To further validate the use of a stem cell model, we first assessed the genetic basis of the fate decisions mediated by RA signaling. During the 24 hr pulse of RA at day 3, Pax3 levels gradually increase, while T expression concomitantly declines (FIG. 12A). […] To identify the transcriptional changes occurring during this first commitment step, we performed bulk RNA-Seq at day 3 (NMP state), day 3.25 (early transcriptional response to RA) and day 4 (dP state1) (FIG. 11B).
We hypothesized that the addition of BMP4 to NPCs in dP state1, directs them to a more dorsal dP state, i.e. dP state2 (FIG. 11A). To define the transcriptional changes occurring after BMP4 addition, we performed bulk RNA-Seq at day 4 (dP state1), day 4.25 (early transcriptional response to RA+BMP4) and at day 5 (dP state2) (FIG. 4A). […] 78 genes, out of 411, were common between both time points (FIGS. 4B, 13B). Focusing on these common genes, we identified enriched functional processes using GO analyses. The GO terms included the BMP signaling pathway (FIG. 4C, Table 3), confirming that the analysis identified BMP responsive genes.

[2] = 6 hrs of RA treatment (day 3.25) vs day 3 NMP state
[3] = 24 hours of RA exposure (day 4) vs day 3

| SMILES | growth rate of the hPSC/NMP monolayer (hESCs/hiPSCs) | EB size over three consecutive passages (mESC-derived NPCs; CHIR vs DMSO, RA and RA+BMP4 patterned EBs) | Sox2+ NPC identity after passaging (mESC-derived NPCs; CHIR-treated EBs) | serial expansion of CHIR-treated cultures every 6 days (a passage) (mESC-derived NPCs; Example 2) [fold] | increase in the number of EBs after each passage compared to DMSO-treated EBs (mESC-derived NPCs; RA- and RA+BMP4-treated EBs) [fold] | increase in the number of CHIR-treated EBs by the third passage (mESC-derived NPCs; passaged 1:3 every 7 days) | genes significantly downregulated [1, 2] [genes] | genes significantly upregulated [1, 2] [genes] | genes significantly downregulated [1, 3] [genes] | genes significantly upregulated [1, 3] [genes] | genes upregulated compared to day 4 control (no RA treatment) ([1]; 24 hr treatment of 100 nM RA) [genes] | genes whose expression levels are altered in total ([1]; day 3, day 3.25, day 4 of RA treatment) [genes] |
| --- | --- | --- | --- | --- | --- | --- | --- | --- | --- | --- | --- | --- |
| Cc1c[nH]c(-c2cnc(NCCNc3ccc(C#N)cn3)nc2-c2ccc(Cl)cc2Cl)n1 [CHIR, CHIR99021] | induces a higher growth rate in the monolayer | decrease in EB size | remained Sox2^+ after multiple passages | 3 | > 6 | 3- to 6 fold | – | – | – | – | – | – |
| CC1=C(/C=C/C(C)=C/C=C/C(C)=C/C(=O)O)C(C)(C)CCC1 [RA, retinoic acid] | – | – | – | – | – | – | 19 | 138 | 590 | 389 | 911 | 979 |
